Source: patent US10479795B2 (Incyte Corporation, priority 2016, dated 2019)
pIC50: −log10 of the molar value. Structures can show the parent of a compound that is named as a salt. Where two headings read alike, the source gives them in different places.

How the values were obtained:
[1] = target: PI3Kγ (p110γ) Recombinant Human Protein (Homo sapiens (Human), UniProt P48736); test: PI3K-γ Scintillation Proximity Assay; assay type: biochemical; conditions: read-out: PI3Kγ IC50
Summary of the method: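 Radiometric SPA readout: […] bound to WGA beads after overnight shaking, IC50 derived from % activity of DMSO control. Reaction used human p110γ, 2 μM ATP, 20 μM PIP2, pH 6.7 MOPS buffer with MgCl2, DTT, CHAPS, 2% DMSO, room temperature.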

[2] = target: PI3Kδ (p110δ/p85α) Recombinant Human Protein (Homo sapiens (Human), UniProt O00329); test: PI3Kδ Scintillation Proximity Assay; assay type: biochemical
Summary of the method: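 Assay conditions: 2 μM ATP (radiolabelled), 20 μM PIP2, 3.4 nM PI3Kδ, 20 mM MOPS pH 6.7 with 10 mM MgCl2, 5 mM DTT, 0.03% CHAPS, 2 h at room temperature. Signal from bead-captured 33P product; IC50 versus solvent control.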

[3] = system: Phosphorylated Ribosomal Protein S6 (RPS6); test: THP-1 RPS6 ELISA Assay; assay type: cell-based, Human; conditions: THP-1 cells, read-out: PI3Kγ_THP1_RPS6_ELISA IC50
Summary of the method: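 IC50 values come from a curve of percent inhibition against log compound concentration, using phospho-RPS6 ELISA (450 nm) on THP-1 lysates. Cells were serum-starved overnight, exposed to compound for 2 h at 37 °C, then challenged 15 min with 10 nM MCP-1.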

Sequence of PI3Kγ (p110γ) Recombinant Human Protein (P48736 whole entry): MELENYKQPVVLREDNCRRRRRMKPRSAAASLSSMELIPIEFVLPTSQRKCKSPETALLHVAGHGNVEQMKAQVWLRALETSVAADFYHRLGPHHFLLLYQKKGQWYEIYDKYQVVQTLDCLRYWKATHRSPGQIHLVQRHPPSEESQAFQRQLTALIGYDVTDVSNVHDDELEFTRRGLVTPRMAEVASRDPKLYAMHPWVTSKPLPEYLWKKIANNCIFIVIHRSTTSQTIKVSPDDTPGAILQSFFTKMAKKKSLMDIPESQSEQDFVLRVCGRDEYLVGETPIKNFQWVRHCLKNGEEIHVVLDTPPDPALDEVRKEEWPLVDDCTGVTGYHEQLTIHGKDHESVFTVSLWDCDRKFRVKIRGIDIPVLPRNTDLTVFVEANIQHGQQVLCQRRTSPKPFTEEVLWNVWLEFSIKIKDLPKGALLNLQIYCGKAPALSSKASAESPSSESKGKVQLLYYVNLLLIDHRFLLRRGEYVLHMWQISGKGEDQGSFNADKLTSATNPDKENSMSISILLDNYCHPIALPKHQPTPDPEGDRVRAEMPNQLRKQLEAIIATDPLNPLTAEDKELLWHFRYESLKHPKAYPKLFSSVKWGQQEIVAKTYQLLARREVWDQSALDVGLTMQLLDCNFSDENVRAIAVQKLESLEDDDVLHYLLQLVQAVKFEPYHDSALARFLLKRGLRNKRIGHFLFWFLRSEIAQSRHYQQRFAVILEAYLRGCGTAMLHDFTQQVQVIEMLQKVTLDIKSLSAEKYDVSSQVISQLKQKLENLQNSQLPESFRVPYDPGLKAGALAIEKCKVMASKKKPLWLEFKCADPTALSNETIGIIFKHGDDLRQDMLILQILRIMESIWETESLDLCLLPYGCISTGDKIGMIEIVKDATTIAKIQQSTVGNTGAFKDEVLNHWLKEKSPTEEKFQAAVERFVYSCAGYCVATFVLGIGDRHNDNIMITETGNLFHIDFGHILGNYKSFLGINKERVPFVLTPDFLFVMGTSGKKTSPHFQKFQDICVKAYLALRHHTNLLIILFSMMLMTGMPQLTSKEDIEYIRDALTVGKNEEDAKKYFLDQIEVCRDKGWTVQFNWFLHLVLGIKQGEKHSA
Sequence of PI3Kδ (p110δ/p85α) Recombinant Human Protein (O00329 whole entry): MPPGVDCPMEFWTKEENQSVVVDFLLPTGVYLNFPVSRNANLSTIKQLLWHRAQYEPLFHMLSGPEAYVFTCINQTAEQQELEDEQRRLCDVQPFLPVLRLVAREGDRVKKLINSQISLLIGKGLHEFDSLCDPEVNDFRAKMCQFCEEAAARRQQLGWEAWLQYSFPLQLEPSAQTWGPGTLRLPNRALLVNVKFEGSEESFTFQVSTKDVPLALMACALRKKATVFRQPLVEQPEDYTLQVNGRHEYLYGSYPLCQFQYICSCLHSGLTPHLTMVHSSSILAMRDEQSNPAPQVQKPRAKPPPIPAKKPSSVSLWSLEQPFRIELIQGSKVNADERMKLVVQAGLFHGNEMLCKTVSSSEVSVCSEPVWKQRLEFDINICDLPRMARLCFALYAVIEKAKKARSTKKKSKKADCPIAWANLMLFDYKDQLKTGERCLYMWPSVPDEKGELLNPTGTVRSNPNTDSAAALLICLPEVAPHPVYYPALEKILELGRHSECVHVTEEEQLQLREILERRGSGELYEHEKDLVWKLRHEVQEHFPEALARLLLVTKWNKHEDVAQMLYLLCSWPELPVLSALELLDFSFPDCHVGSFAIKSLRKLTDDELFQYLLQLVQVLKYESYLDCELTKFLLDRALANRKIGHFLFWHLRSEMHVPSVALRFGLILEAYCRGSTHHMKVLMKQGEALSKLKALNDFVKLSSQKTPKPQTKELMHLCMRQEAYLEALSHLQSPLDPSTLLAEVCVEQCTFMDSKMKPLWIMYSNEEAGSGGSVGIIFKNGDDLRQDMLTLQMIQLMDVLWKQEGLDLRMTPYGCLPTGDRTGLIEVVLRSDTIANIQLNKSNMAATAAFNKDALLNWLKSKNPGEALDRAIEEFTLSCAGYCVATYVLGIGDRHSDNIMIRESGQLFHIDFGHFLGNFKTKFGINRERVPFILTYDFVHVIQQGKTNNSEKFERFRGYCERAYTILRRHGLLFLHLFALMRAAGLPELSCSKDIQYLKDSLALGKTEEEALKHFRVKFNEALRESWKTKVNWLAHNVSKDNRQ
Sequence of PI3Kδ (p110δ/p85α) Recombinant Human Protein (P27986 whole entry partner): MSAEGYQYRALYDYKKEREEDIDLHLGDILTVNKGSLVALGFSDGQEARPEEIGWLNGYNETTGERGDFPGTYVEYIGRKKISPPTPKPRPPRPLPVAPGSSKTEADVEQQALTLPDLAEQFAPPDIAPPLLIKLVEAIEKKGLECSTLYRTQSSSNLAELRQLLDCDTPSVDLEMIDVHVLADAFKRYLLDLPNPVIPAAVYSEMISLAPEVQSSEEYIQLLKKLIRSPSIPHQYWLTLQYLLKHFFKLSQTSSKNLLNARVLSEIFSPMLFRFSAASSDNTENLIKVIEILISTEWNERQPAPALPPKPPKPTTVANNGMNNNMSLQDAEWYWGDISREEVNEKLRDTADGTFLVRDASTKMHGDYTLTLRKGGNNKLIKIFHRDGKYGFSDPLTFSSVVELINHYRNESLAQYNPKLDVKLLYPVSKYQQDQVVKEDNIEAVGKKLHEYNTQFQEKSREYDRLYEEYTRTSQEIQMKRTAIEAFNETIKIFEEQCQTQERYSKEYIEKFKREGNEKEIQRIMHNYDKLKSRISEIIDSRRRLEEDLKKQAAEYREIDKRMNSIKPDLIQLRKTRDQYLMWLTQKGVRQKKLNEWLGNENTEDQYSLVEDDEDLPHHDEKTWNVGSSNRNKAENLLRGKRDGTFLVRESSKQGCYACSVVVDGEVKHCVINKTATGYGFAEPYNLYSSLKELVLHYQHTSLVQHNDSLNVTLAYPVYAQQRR

| Compound | pIC50 [1] | pIC50 [2] | pIC50 ([3]; Homo sapiens) | pIC50 [3] |
| --- | --- | --- | --- | --- |
| Cc1ccc(S(=O)(=O)N2CC[C@@H](F)[C@@H](N)C2)cc1-c1cnc2c(N)nc(C(F)(F)F)cn12 [Example 308, 3-(5-(((3S,4R)-3-amino-4-fluoropiperidin-1-yl)sulfonyl)-2-methylphenyl)-6-(trifluoromethyl)imidazo[1,2-a]pyrazin-8-amine] | > 7.00 | > 7.00 | > 7.00 | – |
| Cc1ccc(S(=O)(=O)N2CCC[C@@H](N(C)C)C2)cc1-c1cnc2c(N)nc(C(F)(F)F)cn12 [Example 309, (R)-3-(5-((3-(dimethylamino)piperidin-1-yl)sulfonyl)-2-methylphenyl)-6-(trifluoromethyl)imidazo[1,2-a]pyrazin-8-amine] | > 7.00 | 5.70 to 6.30 | 6.30 to 7.00 | – |
| Cc1ccc(S(=O)(=O)N[C@H]2CC[C@H](O)CC2)cc1-c1cnc2c(N)nc(C(F)(F)F)cn12 [Example 310, 3-(8-Amino-6-(trifluoromethyl)imidazo[1,2-a]pyrazin-3-yl)-N-(trans-4-hydroxycyclohexyl)-4-methylbenzenesulfonamide] | > 7.00 | 6.30 to 7.00 | > 7.00 | – |
| Cc1ccc(S(=O)(=O)N[C@H]2CC[C@H](CO)OC2)cc1-c1cnc2c(N)nc(C(F)(F)F)cn12 [Example 311] | > 7.00 | 6.30 to 7.00 | – | > 7.00 |
| Cc1ccc(S(=O)(=O)N2CCCC(C)(CO)C2)cc1-c1cnc2c(N)nc(C(F)(F)F)cn12 (stereo not drawn) [Example 312, (1-((3-(8-Amino-6-(trifluoromethyl)imidazo[1,2-a]pyrazin-3-yl)-4-methylphenyl)sulfonyl)-3-methylpiperidin-3-yl)methanol] | > 7.00 | 6.30 to 7.00 | 6.30 to 7.00 | – |
| Cc1ccc(S(=O)(=O)N2CCCC(C#N)C2)cc1-c1cnc2c(N)nc(C(F)(F)F)cn12 (stereo not drawn) [Example 314, 1-((3-(8-Amino-6-(trifluoromethyl)imidazo[1,2-a]pyrazin-3-yl)-4-methylphenyl)sulfonyl)piperidine-3-carbonitrile] | > 7.00 | 6.30 to 7.00 | 6.30 to 7.00 | – |
| Cc1ccc(S(=O)(=O)NCC2(F)COC2)cc1-c1cnc2c(N)nc(C(F)(F)F)nn12 [Example 315, 3-(4-Amino-2-(trifluoromethyl)imidazo[1,2-f][1,2,4]triazin-7-yl)-N-((3-fluorooxetan-3-yl)methyl)-4-methylbenzenesulfonamide trifluoroacetate salt] | > 7.00 | > 7.00 | – | > 7.00 |
| Cc1ccc(S(=O)(=O)NCC2(O)COC2)cc1-c1cnc2c(N)nc(C(F)(F)F)nn12 [Example 316, 3-(4-Amino-2-(trifluoromethyl)imidazo[1,2-f][1,2,4]triazin-7-yl)-N-((3-hydroxyoxetan-3-yl)methyl)-4-methylbenzenesulfonamide trifluoroacetate salt] | > 7.00 | 6.30 to 7.00 | – | > 7.00 |
| Cc1ccc(S(=O)(=O)NCC(C)(C)O)cc1-c1cnc2c(N)nc(C(F)(F)F)nn12 [Example 317, 3-(4-Amino-2-(trifluoromethyl)imidazo[1,2-f][1,2,4]triazin-7-yl)-N-(2-hydroxy-2-methylpropyl)-4-methylbenzenesulfonamide trifluoroacetate salt] | > 7.00 | 6.30 to 7.00 | – | > 7.00 |
| Cc1ccc(S(=O)(=O)NCC2(C)COC2)cc1-c1cnc2c(N)nc(C(F)(F)F)nn12 [Example 318, 3-(4-Amino-2-(trifluoromethyl)imidazo[1,2-f][1,2,4]triazin-7-yl)-4-methyl-N-((3-methyloxetan-3-yl)methyl)benzenesulfonamide trifluoroacetate salt] | > 7.00 | 6.30 to 7.00 | – | > 7.00 |
| Cc1ccc(S(=O)(=O)NC23CC(CO)(C2)C3)cc1-c1cnc2c(N)nc(C(F)(F)F)nn12 [Example 319, 3-(4-Amino-2-(trifluoromethyl)imidazo[1,2-f][1,2,4]triazin-7-yl)-N-(3-(hydroxymethyl)bicyclo[1.1.1]pentan-1-yl)-4-methylbenzenesulfonamide] | > 7.00 | 6.30 to 7.00 | – | > 7.00 |
| Cc1ccc(S(=O)(=O)NC2CN(C)C2)cc1-c1cnc2c(N)nc(C(F)(F)F)nn12 [Example 322, 3-(4-Amino-2-(trifluoromethyl)imidazo[1,2-f][1,2,4]triazin-7-yl)-4-methyl-N-(1-methylazetidin-3-yl)benzenesulfonamide] | > 7.00 | 6.30 to 7.00 | – | > 7.00 |
| Cc1ccc(S(=O)(=O)N[C@H]2C[C@H](CO)C2)cc1-c1cnc2c(N)nc(C(F)(F)F)nn12 [Example 323, 3-(4-Amino-2-(trifluoromethyl)imidazo[1,2-f][1,2,4]triazin-7-yl)-N-((1r,3r)-3-(hydroxymethyl)cyclobutyl)-4-methylbenzenesulfonamide trifluoroacetate salt] | > 7.00 | 6.30 to 7.00 | – | > 7.00 |

Continued, values first:

| pIC50 [1] | pIC50 [2] | pIC50 ([3]; Homo sapiens) | pIC50 [3] | Compound |
| --- | --- | --- | --- | --- |
| > 7.00 | 5.70 to 6.30 | < 6.00 | – | Cc1ccc(S(=O)(=O)NC23CC(c4nnn[nH]4)(C2)C3)cc1-c1cnc2c(N)nc(C(F)(F)F)cn12 [Example 292, N-(3-(1H-Tetrazol-5-yl)bicyclo[1.1.1]pentan-1-yl)-3-(8-amino-6-(trifluoromethyl)imidazo[1,2-a]pyrazin-3-yl)-4-methylbenzenesulfonamide trifluoroacetate salt] |
| > 7.00 | 6.30 to 7.00 | 6.30 to 7.00 | – | Cc1noc(C23CC(NS(=O)(=O)c4ccc(C)c(-c5cnc6c(N)nc(C(F)(F)F)cn56)c4)(C2)C3)n1 [Example 293, 3-(8-Amino-6-(trifluoromethyl)imidazo[1,2-a]pyrazin-3-yl)-4-methyl-N-(3-(3-methyl-1,2,4-oxadiazol-5-yl)bicyclo[1.1.1]pentan-1-yl)benzenesulfonamide trifluoroacetate salt] |
| > 7.00 | 5.70 to 6.30 | < 6.00 | – | Cc1ccc(S(=O)(=O)NC23CC(c4nccn4C)(C2)C3)cc1-c1cnc2c(N)nc(C(F)(F)F)cn12 [Example 294, 3-(8-Amino-6-(trifluoromethyl)imidazo[1,2-a]pyrazin-3-yl)-4-methyl-N-(3-(1-methyl-1H-imidazol-2-yl)bicyclo[1.1.1]pentan-1-yl)benzenesulfonamide trifluoroacetate salt] |
| > 7.00 | 5.70 to 6.30 | < 6.00 | – | Cc1ccc(S(=O)(=O)NC23CC(c4ncno4)(C2)C3)cc1-c1cnc2c(N)nc(C(F)(F)F)cn12 [Example 295, N-(3-(1,2,4-Oxadiazol-5-yl)bicyclo[1.1.1]pentan-1-yl)-3-(8-amino-6-(trifluoromethyl)imidazo[1,2-a]pyrazin-3-yl)-4-methylbenzenesulfonamide trifluoroacetate salt] |
| > 7.00 | 5.70 to 6.30 | 6.30 to 7.00 | – | Cc1ccc(S(=O)(=O)NC23CC(N4CCOCC4)(C2)C3)cc1-c1cnc2c(N)nc(C(F)(F)F)cn12 [Example 296, 3-(8-Amino-6-(trifluoromethyl)imidazo[1,2-a]pyrazin-3-yl)-4-methyl-N-(3-morpholinobicyclo[1.1.1]pentan-1-yl)benzenesulfonamide trifluoroacetate salt] |
| > 7.00 | 6.30 to 7.00 | 6.30 to 7.00 | – | Cc1ccc(S(=O)(=O)N(C)[C@H]2CN(C)C[C@@H]2O)cc1-c1cnc2c(N)nc(C(F)(F)F)cn12 [Example 299, 3-(8-amino-6-(trifluoromethyl)imidazo[1,2-a]pyrazin-3-yl)-N-((3S,4S)-4-hydroxy-1-methylpyrrolidin-3-yl)-N,4-dimethylbenzenesulfonamide] |
| > 7.00 | 5.70 to 6.30 | 6.30 to 7.00 | – | Cc1ccc(S(=O)(=O)N(CCC#N)C2CCCCC2)cc1-c1cnc2c(N)nc(C(F)(F)F)cn12 [Example 301, 3-(8-amino-6-(trifluoromethyl)imidazo[1,2-a]pyrazin-3-yl)-N-(2-cyanoethyl)-N-cyclohexyl-4-methylbenzenesulfonamide] |
| > 7.00 | 6.30 to 7.00 | < 6.00 | – | Cc1ccc(S(=O)(=O)N2CC[C@H](N)C2)cc1-c1cnc2c(N)nc(C(F)(F)F)cn12 [Example 305, (S)-3-(5-((3-aminopyrrolidin-1-yl)sulfonyl)-2-methylphenyl)-6-(trifluoromethyl)imidazo[1,2-a]pyrazin-8-amine bis(trifluoroacetate)] |
| > 7.00 | > 7.00 | > 7.00 | – | Cc1ccc(S(=O)(=O)N2C[C@@H](C)C[C@@H](N)C2)cc1-c1cnc2c(N)nc(C(F)(F)F)cn12 [Example 306, 3-(5-(((3R,5S)-3-amino-5-methylpiperidin-1-yl)sulfonyl)-2-methylphenyl)-6-(trifluoromethyl)imidazo[1,2-a]pyrazin-8-amine] |
| > 7.00 | > 7.00 | 6.30 to 7.00 | – | Cc1ccc(S(=O)(=O)N2C[C@H](N)C[C@H](C(F)(F)F)C2)cc1-c1cnc2c(N)nc(C(F)(F)F)cn12 [Example 307, 3-(5-(((3R,5S)-3-amino-5-(trifluoromethyl)piperidin-1-yl)sulfonyl)-2-methylphenyl)-6-(trifluoromethyl)imidazo[1,2-a]pyrazin-8-amine] |
